In ChEMBL document CHEMBL1201861, “Genomics of Drug Sensitity in Cancer screening data, Wellcome Trust Sanger Institute”:

Legend:
Experiment in all cases: cells
Settings in all cases: Homo sapiens
COR-L88 = format: functional, cell-based;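 further: growth inhibition of COR-L88 cells, read out with a cell viability assay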
Description: SANGER: Inhibition of human COR-L88 cell growth in a cell viability assay.

D-263MG = format: functional, cell-based
Description: SANGER: Inhibition of human D-263MG cell growth in a cell viability assay.

D283 Med = format: functional, cell-based
Description: SANGER: Inhibition of human D-283MED cell growth in a cell viability assay.

DSH1 = format: functional, cell-based;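 further: growth inhibition of human DSH1 cells, measured with a cell viability readout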
Description: SANGER: Inhibition of human DSH1 cell growth in a cell viability assay.

EM-2 = format: functional, cell-based;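 further: growth inhibition of EM-2 cells, read out with a cell viability assay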
Description: SANGER: Inhibition of human EM-2 cell growth in a cell viability assay.

ES3 = format: functional, cell-based;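 further: growth inhibition of ES3 cells, read out with a cell viability assay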
Description: SANGER: Inhibition of human ES3 cell growth in a cell viability assay.

ES8 = format: functional, cell-based;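 further: growth inhibition of human ES8 cells, read out with a cell viability assay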
Description: SANGER: Inhibition of human ES8 cell growth in a cell viability assay.

EW-11 = format: functional, cell-based;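 further: growth inhibition of human EW-11 cells, measured with a cell viability assay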
Description: SANGER: Inhibition of human EW-11 cell growth in a cell viability assay.

GCIY = format: functional, cell-based;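 further: growth inhibition of the human GCIY cell line, read out by a cell viability assay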
Description: SANGER: Inhibition of human GCIY cell growth in a cell viability assay.

GOTO = format: functional, cell-based;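 further: growth inhibition of GOTO cells, read out by a cell viability assay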
Description: SANGER: Inhibition of human GOTO cell growth in a cell viability assay.

GR-ST = format: functional, cell-based
Description: SANGER: Inhibition of human GR-ST cell growth in a cell viability assay.

GT3TKB = format: functional, cell-based;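 further: growth inhibition of the cell line, read out with a cell viability assay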
Description: SANGER: Inhibition of human GT3TKB cell growth in a cell viability assay.

HCE-4 = format: functional, cell-based;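 further: cell viability assay measuring inhibition of growth in the human HCE-4 cell line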
Description: SANGER: Inhibition of human HCE-4 cell growth in a cell viability assay.

HCE-T = format: functional, cell-based;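 further: cell viability assay read-out, reporting inhibition of HCE-T cell growth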
Description: SANGER: Inhibition of human HCE-T cell growth in a cell viability assay.

HEL = format: functional, cell-based;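 further: growth inhibition of HEL cells, read out with a cell viability assay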
Description: SANGER: Inhibition of human HEL cell growth in a cell viability assay.

IST-MES1 = format: functional, cell-based;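 further: growth inhibition of IST-MES1 cells, measured with a cell viability assay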
Description: SANGER: Inhibition of human IST-MES1 cell growth in a cell viability assay.

J-RT3-T3-5 = format: functional, cell-based;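 further: cell viability assay measuring growth inhibition of human J-RT3-T3-5 cells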
Description: SANGER: Inhibition of human J-RT3-T3-5 cell growth in a cell viability assay.

JVM-2 = format: functional, cell-based;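 further: growth inhibition of JVM-2 cells determined by a cell viability assay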
Description: SANGER: Inhibition of human JVM-2 cell growth in a cell viability assay.

KE-37 = format: functional, cell-based;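 further: growth inhibition of KE-37 cells, read out with a cell viability assay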
Description: SANGER: Inhibition of human KE-37 cell growth in a cell viability assay.

KNS-42 = format: functional, cell-based;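 further: growth inhibition of KNS-42 cells, read out with a cell viability assay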
Description: SANGER: Inhibition of human KNS-42 cell growth in a cell viability assay.

KNS-81-FD = format: functional, cell-based;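 further: growth inhibition of KNS-81-FD cells, read out with a cell viability assay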
Description: SANGER: Inhibition of human KNS-81-FD cell growth in a cell viability assay.

KS-1 = format: functional, cell-based;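 further: growth inhibition of KS-1 cells, read out with a cell viability assay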
Description: SANGER: Inhibition of human KS-1 cell growth in a cell viability assay.

KU812 cell line = format: functional, cell-based;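 further: growth inhibition of KU812 cells, read out with a cell viability assay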
Description: SANGER: Inhibition of human KU812 cell growth in a cell viability assay.

KURAMOCHI = format: functional, cell-based;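 further: growth inhibition of KURAMOCHI cells, read out with a cell viability assay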
Description: SANGER: Inhibition of human KURAMOCHI cell growth in a cell viability assay.

KY821 = format: functional, cell-based;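 further: growth inhibition of human KY821 cells, read out by a cell viability assay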
Description: SANGER: Inhibition of human KY821 cell growth in a cell viability assay.

LB1047-RCC = format: functional, cell-based;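 further: inhibition of cell growth, determined with a cell viability assay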
Description: SANGER: Inhibition of human LB1047-RCC cell growth in a cell viability assay.

LNCaP-Clone-FGC = format: functional, cell-based
Description: SANGER: Inhibition of human LNCaP-Clone-FGC cell growth in a cell viability assay.

LS-123 = format: functional, cell-based
Description: SANGER: Inhibition of human LS-123 cell growth in a cell viability assay.

LS-411N = format: functional, cell-based
Lu-65 = format: functional, cell-based;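 further: growth inhibition of Lu-65 cancer cells, read out by a cell viability assay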
Description: SANGER: Inhibition of human LU-65 cell growth in a cell viability assay.

MLMA = format: functional, cell-based;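 further: growth inhibition of MLMA cells (human), determined through a cell viability readout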
Description: SANGER: Inhibition of human MLMA cell growth in a cell viability assay.

MOLT-4 = format: functional, cell-based;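 further: growth inhibition of MOLT-4 cells, determined with a cell viability readout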
Description: SANGER: Inhibition of human MOLT-4 cell growth in a cell viability assay.

MSTO-211H = format: functional, cell-based
Description: SANGER: Inhibition of human MSTO-211H cell growth in a cell viability assay.

NB5 = format: functional, cell-based;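 further: growth inhibition of NB5 cells, read out as cell viability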
Description: SANGER: Inhibition of human NB5 cell growth in a cell viability assay.

NCI-H1650 = format: functional, cell-based;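 further: growth inhibition of human NCI-H1650 cells measured by a cell viability assay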
Description: SANGER: Inhibition of human NCI-H1650 cell growth in a cell viability assay.

NCI-H23 = format: functional, cell-based;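 further: cell viability assay measuring growth inhibition of NCI-H23 cells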
Description: SANGER: Inhibition of human NCI-H23 cell growth in a cell viability assay.

NCI-H720 = format: functional, cell-based;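 further: growth inhibition of human NCI-H720 cells determined by a cell viability assay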
Description: SANGER: Inhibition of human NCI-H720 cell growth in a cell viability assay.

NEC8 = format: functional, cell-based;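 further: growth inhibition of human NEC8 cells, read out by a cell viability assay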
Description: SANGER: Inhibition of human NEC8 cell growth in a cell viability assay.

NMC-G1 = format: functional, cell-based;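 further: growth inhibition of the NMC-G1 cell line, measured with a cell viability read-out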
Description: SANGER: Inhibition of human NMC-G1 cell growth in a cell viability assay.

NTERA-2-cl-D1 = format: functional, cell-based;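 further: inhibition of cell growth, measured with a cell viability assay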
Description: SANGER: Inhibition of human NTERA-S-cl-D1 cell growth in a cell viability assay.

OMC-1 = format: functional, cell-based;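 further: growth inhibition of the OMC-1 cell line, measured by a cell viability assay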
Description: SANGER: Inhibition of human OMC-1 cell growth in a cell viability assay.

P30-OHK = format: functional, cell-based;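 further: growth inhibition of the P30-OHK cell line, read out with a cell viability assay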
Description: SANGER: Inhibition of human P30-OHK cell growth in a cell viability assay.

RH-1 = format: functional, cell-based;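 further: growth inhibition of human RH-1 cells, read out with a cell viability assay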
Description: SANGER: Inhibition of human RH-1 cell growth in a cell viability assay.

SBC-1 = format: functional, cell-based;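 further: cell viability assay measuring growth inhibition of the SBC-1 cell line, IC50 being the concentration that halves growth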
Description: SANGER: Inhibition of human SBC-1 cell growth in a cell viability assay.

SCC-15 = format: functional, cell-based;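 further: growth inhibition of SCC-15 cells, read out with a cell viability assay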
Description: SANGER: Inhibition of human SCC-15 cell growth in a cell viability assay.

SH-4 = format: functional, cell-based;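 further: growth inhibition of SH-4 cells, read out with a cell viability assay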
Description: SANGER: Inhibition of human SH-4 cell growth in a cell viability assay.

SHP77 = format: functional, cell-based, SHP-77;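 further: growth inhibition of human SHP-77 cells measured by a cell viability assay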
Description: SANGER: Inhibition of human SHP-77 cell growth in a cell viability assay.

SK-N-DZ = format: functional, cell-based;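 further: growth inhibition of the cancer cell line, read out through a viability assay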
Description: SANGER: Inhibition of human SK-N-DZ cell growth in a cell viability assay.

SNU-C2B = format: functional, cell-based;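 further: cell viability readout used to measure compound-driven suppression of SNU-C2B cell proliferation, IC50 marking half-maximal growth inhibition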
Description: SANGER: Inhibition of human SNU-C2B cell growth in a cell viability assay.

8-MG-BA = format: functional, cell-based;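 further: growth inhibition of 8-MG-BA cells, read out with a cell viability assay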
Description: SANGER: Inhibition of human 8-MG-BA cell growth in a cell viability assay.

ALL-PO = format: functional, cell-based;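 further: growth inhibition of ALL-PO cells, read out by a cell viability assay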
Description: SANGER: Inhibition of human ALL-PO cell growth in a cell viability assay.

BB65-RCC = format: functional, cell-based;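 further: growth inhibition of the cell line, measured with a cell viability assay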
Description: SANGER: Inhibition of human BB65-RCC cell growth in a cell viability assay.

BT-474 = format: functional, cell-based
Description: SANGER: Inhibition of human BT-474 cell growth in a cell viability assay.

C2BBe1 = format: functional, cell-based;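 further: growth inhibition of C2BBe1 cells, read out through a viability assay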
Description: SANGER: Inhibition of human C2BBe1 cell growth in a cell viability assay.

TK-10 = format: functional, cell-based;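 further: growth inhibition of TK-10 cells, read out in a cell viability assay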
Description: SANGER: Inhibition of human TK10 cell growth in a cell viability assay.

U-266 = format: functional, cell-based
Description: SANGER: Inhibition of human U-266 cell growth in a cell viability assay.

CCRF-CEM = format: functional, cell-based
Description: SANGER: Inhibition of human CCRF-CEM cell growth in a cell viability assay.

CGTH-W-1 = format: functional, cell-based
Description: SANGER: Inhibition of human CGTH-W-1 cell growth in a cell viability assay.

COLO-668 = format: functional, cell-based
Description: SANGER: Inhibition of human COLO-668 cell growth in a cell viability assay.

KALS-1 = format: functional, cell-based
Description: SANGER: Inhibition of human KALS-1 cell growth in a cell viability assay.

NCI-H1648 = format: functional, cell-based
Description: SANGER: Inhibition of human NCI-H1648 cell growth in a cell viability assay.

Structure (SMILES): CC(=O)c1c(C)c2cnc(Nc3ccc(N4CCNCC4)cn3)nc2n(C2CCCC2)c1=O [PALBOCICLIB]
- IC50 (COR-L88): > 4000 nM
- IC50 (D-263MG): 717 nM
- IC50 (D283 Med): 2720 nM
- IC50 (DSH1): > 4000 nM
- IC50 (EM-2): 651 nM
- IC50 (ES3): 729 nM
- IC50 (ES8): 605 nM
- IC50 (EW-11): > 4000 nM
- IC50 (GCIY): > 4000 nM
- IC50 (GOTO): > 4000 nM
- IC50 (GR-ST): > 4000 nM
- IC50 (GT3TKB): 2590 nM
- IC50 (HCE-4): > 4000 nM
- IC50 (HCE-T): > 4000 nM
- IC50 (HEL): 1290 nM
- IC50 (IST-MES1): 3830 nM
- IC50 (J-RT3-T3-5): 936 nM
- IC50 (JVM-2): > 4000 nM
- IC50 (KE-37): 2090 nM
- IC50 (KNS-42): > 4000 nM
- IC50 (KNS-81-FD): > 4000 nM
- IC50 (KS-1): > 4000 nM
- IC50 (KU812 cell line): 1890 nM
- IC50 (KURAMOCHI): > 4000 nM
- IC50 (KY821): 314 nM
- IC50 (LB1047-RCC): 928 nM
- IC50 (LNCaP-Clone-FGC): > 4000 nM
- IC50 (LS-123): > 4000 nM
- IC50 (LS-411N): > 4000 nM
- IC50 (Lu-65): > 4000 nM
- IC50 (MLMA): > 4000 nM
- IC50 (MOLT-4): 345 nM
- IC50 (MSTO-211H): 1700 nM
- IC50 (NB5): > 4000 nM
- IC50 (NCI-H1650): > 4000 nM
- IC50 (NCI-H23): > 4000 nM
- IC50 (NCI-H720): > 4000 nM
- IC50 (NEC8): > 4000 nM
- IC50 (NMC-G1): > 4000 nM
- IC50 (NTERA-2-cl-D1): > 4000 nM
- IC50 (OMC-1): > 4000 nM
- IC50 (P30-OHK): > 4000 nM
- IC50 (RH-1): > 4000 nM
- IC50 (SBC-1): > 4000 nM
- IC50 (SCC-15): > 4000 nM
- IC50 (SH-4): > 4000 nM
- IC50 (SHP77): > 4000 nM
- IC50 (SK-N-DZ): > 4000 nM
- IC50 (SNU-C2B): > 4000 nM
- IC50 (8-MG-BA): > 4000 nM
- IC50 (ALL-PO): > 4000 nM
- IC50 (BB65-RCC): 1510 nM
- IC50 (BT-474): > 4000 nM
- IC50 (C2BBe1): > 4000 nM
- IC50 (TK-10): 3200 nM
- IC50 (U-266): > 4000 nM
- IC50 (CCRF-CEM): > 4000 nM
- IC50 (CGTH-W-1): 1170 nM
- IC50 (COLO-668): > 4000 nM

Structure (SMILES): Cn1c(=O)n(-c2ccc(C(C)(C)C#N)cc2)c2c3cc(-c4cnc5ccccc5c4)ccc3ncc21 [DACTOLISIB]
- IC50 (COR-L88): 848 nM
- IC50 (D-263MG): 29.3 nM
- IC50 (D283 Med): 49.6 nM
- IC50 (DSH1): 407 nM
- IC50 (EM-2): 54.4 nM
- IC50 (ES3): 25.2 nM
- IC50 (ES8): 10.9 nM
- IC50 (EW-11): 96.9 nM
- IC50 (GCIY): 50.7 nM
- IC50 (GOTO): 250 nM
- IC50 (GR-ST): 52.9 nM
- IC50 (GT3TKB): 118 nM
- IC50 (HCE-4): 262 nM
- IC50 (HCE-T): 83.7 nM
- IC50 (HEL): 109 nM
- IC50 (IST-MES1): 237 nM
- IC50 (J-RT3-T3-5): 23 nM
- IC50 (JVM-2): > 2000 nM
- IC50 (KALS-1): 82.5 nM
- IC50 (KE-37): 58.8 nM
- IC50 (KNS-42): 144 nM
- IC50 (KNS-81-FD): 19.5 nM
- IC50 (KS-1): 44.7 nM
- IC50 (KU812 cell line): 68.7 nM
- IC50 (KURAMOCHI): 266 nM
- IC50 (KY821): 56.2 nM
- IC50 (LB1047-RCC): 38.8 nM
- IC50 (LNCaP-Clone-FGC): 37.6 nM
- IC50 (LS-123): 92.2 nM
- IC50 (LS-411N): 187 nM
- IC50 (Lu-65): 1620 nM
- IC50 (MLMA): 137 nM
- IC50 (MOLT-4): 25.1 nM
- IC50 (MSTO-211H): 63.5 nM
- IC50 (NB5): 40.6 nM
- IC50 (NCI-H1648): 113 nM
- IC50 (NCI-H1650): 204 nM
- IC50 (NCI-H23): 219 nM
- IC50 (NCI-H720): 3.57 nM
- IC50 (NEC8): 67.2 nM
- IC50 (NMC-G1): 121 nM
- IC50 (NTERA-2-cl-D1): 43 nM
- IC50 (OMC-1): 100 nM
- IC50 (P30-OHK): 83.5 nM
- IC50 (RH-1): 54.7 nM
- IC50 (SBC-1): < 7.81 nM
- IC50 (SCC-15): 174 nM
- IC50 (SH-4): 75.2 nM
- IC50 (SHP77): > 2000 nM
- IC50 (SK-N-DZ): > 2000 nM
- IC50 (SNU-C2B): 181 nM
- IC50 (8-MG-BA): 37.3 nM
- IC50 (ALL-PO): 416 nM
- IC50 (BB65-RCC): 12.7 nM
- IC50 (BT-474): 236 nM
- IC50 (C2BBe1): 75 nM
- IC50 (TK-10): 100 nM
- IC50 (U-266): 206 nM
- IC50 (CCRF-CEM): > 2000 nM
- IC50 (CGTH-W-1): 20.6 nM
- IC50 (COLO-668): 706 nM
